# Measured values: the NIST ThermoML archive (doi:10.1007/s10765-010-0717-9)
# ± gives the expanded uncertainty stated by the source.
# Details: 298.15 K; 101.33 kPa; Liquid; Pycnometric method
row,Structure (SMILES),mass density
1,"Cc1ccccc1C [1,2-dimethylbenzene]",875.99 ± 5.6 kg/m3
2,"Cc1ccc(C)cc1 [1,4-dimethylbenzene]",856.58 ± 5.3 kg/m3
3,Cc1ccccc1 [toluene],862.21 ± 5.4 kg/m3
